Experimental data reported in ChEMBL document CHEMBL4184210, “Optimization of novel monobactams with activity against carbapenem-resistant Enterobacteriaceae - Identification of LYS228” (Bioorg Med Chem Lett, 2018).
Converted amounts (≈) assume the structure as drawn. The source made the active and inactive calls. The rule behind the calls is not given here.

Key:
Escherichia coli [1] = test: microbe, parasite or virus in culture
Escherichia coli [2] = test: microbe, parasite or virus in culture; remark: listed apart in the source
Escherichia coli [3] = test: microbe, parasite or virus in culture; remark: listed apart in the source
[4] = Drug excretion in rat assessed as unchanged parent drug level at 10 mg/kg, iv; assay type: ADME, organism-based; conditions: in vivo, read-out: Drug excretion
Escherichia coli [5] = test: microbe, parasite or virus in culture; remark: listed apart in the source
Beta-lactamase SHV-12 = molecular target: T1, Beta-lactamase SHV-12 (Escherichia coli, UniProt Q7X574); test: Stability assessed as assessed as Escherichia coli beta-lactamase SHV-12-mediated compound hydrolysis by measuring molar enthalpy of hydrolysis at 1 mM by isothermal titration calorimetry; assay type: ADME; conditions: 1000 µM
T1 sequence (Q7X574 whole entry): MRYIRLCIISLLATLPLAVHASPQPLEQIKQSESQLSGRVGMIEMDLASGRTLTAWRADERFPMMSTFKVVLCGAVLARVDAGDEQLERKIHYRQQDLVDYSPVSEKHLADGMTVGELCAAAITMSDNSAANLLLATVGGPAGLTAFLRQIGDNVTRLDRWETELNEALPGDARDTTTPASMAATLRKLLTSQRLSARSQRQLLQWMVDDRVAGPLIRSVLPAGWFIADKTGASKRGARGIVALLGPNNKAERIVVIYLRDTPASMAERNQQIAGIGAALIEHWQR

[6] = Stability assessed as assessed as Escherichia coli beta-lactamase CTX-M-15-mediated compound hydrolysis by measuring molar enthalpy of hydrolysis at 1 mM by isothermal titration calorimetry; assay type: ADME; conditions: 1000 µM
Escherichia coli [7] = test: microbe, parasite or virus in culture; remark: listed apart in the source
[8] = Stability assessed as assessed as Escherichia coli beta-lactamase KPC-2-mediated compound hydrolysis by measuring molar enthalpy of hydrolysis at 1 mM by isothermal titration calorimetry; assay type: ADME; conditions: 1000 µM
[9] = AUC in dog at 10 mg/kg, iv; assay type: ADME, organism-based, Canis lupus familiaris; conditions: in vivo
Escherichia coli [10] = test: microbe, parasite or virus in culture; remark: listed apart in the source
Escherichia coli [11] = test: microbe, parasite or virus in culture; remark: listed apart in the source
Escherichia coli [12] = test: microbe, parasite or virus in culture; remark: listed apart in the source
Escherichia coli [13] = test: microbe, parasite or virus in culture; remark: listed apart in the source
Escherichia coli [14] = test: microbe, parasite or virus in culture; remark: listed apart in the source
Escherichia coli [15] = test: microbe, parasite or virus in culture; remark: listed apart in the source
Escherichia coli [16] = test: microbe, parasite or virus in culture; remark: listed apart in the source
Escherichia coli [17] = test: microbe, parasite or virus in culture; remark: listed apart in the source
[18] = AUC in rat at 10 mg/kg, iv; assay type: ADME, organism-based; conditions: in vivo
Escherichia coli [19] = test: microbe, parasite or virus in culture; remark: listed apart in the source
[20] = Drug excretion in dog assessed as unchanged parent drug level at 10 mg/kg, iv; assay type: ADME, organism-based, Canis lupus familiaris; conditions: in vivo, read-out: Drug excretion
Escherichia coli [21] = test: microbe, parasite or virus in culture; remark: listed apart in the source
Escherichia coli [22] = test: microbe, parasite or virus in culture; remark: listed apart in the source
Klebsiella pneumoniae = test: Antimicrobial activity against Klebsiella pneumoniae expressing beta-lactamase NDM-1 infected in neutropenic mouse thigh infection model assessed as compound dose causing 1 log10 CFU reduction in bacterial load dosed subcutaneously every 4 hrs; assay type: functional
[23] = AUC in mouse at […], iv; assay type: ADME, organism-based; conditions: in vivo
Escherichia coli [24] = test: microbe, parasite or virus in culture; remark: listed apart in the source
Escherichia coli [25] = test: microbe, parasite or virus in culture; remark: listed apart in the source
Escherichia coli [26] = test: microbe, parasite or virus in culture; remark: listed apart in the source
Escherichia coli [27] = test: microbe, parasite or virus in culture; remark: listed apart in the source
Escherichia coli [28] = test: microbe, parasite or virus in culture; remark: listed apart in the source
Escherichia coli [29] = test: microbe, parasite or virus in culture; remark: listed apart in the source
Escherichia coli [30] = test: microbe, parasite or virus in culture; remark: listed apart in the source
Escherichia coli [31] = test: Antimicrobial activity against Escherichia coli expressing beta-lactamase KPC-2 by CLSI broth microdilution method; assay type: functional
Escherichia coli [32] = test: microbe, parasite or virus in culture; remark: listed apart in the source
Escherichia coli [33] = test: Antimicrobial activity against Escherichia coli expressing beta-lactamase NDM-5 by CLSI broth microdilution method; assay type: functional
Escherichia coli [34] = test: microbe, parasite or virus in culture; remark: listed apart in the source
Escherichia coli [35] = test: microbe, parasite or virus in culture; remark: listed apart in the source
Escherichia coli [36] = test: microbe, parasite or virus in culture; remark: listed apart in the source
Escherichia coli [37] = test: microbe, parasite or virus in culture; remark: listed apart in the source
Escherichia coli [38] = test: microbe, parasite or virus in culture; remark: listed apart in the source
Escherichia coli [39] = test: microbe, parasite or virus in culture; remark: listed apart in the source
Escherichia coli [40] = test: microbe, parasite or virus in culture; remark: listed apart in the source
Escherichia coli [41] = test: microbe, parasite or virus in culture; remark: listed apart in the source
Escherichia coli [42] = test: Antimicrobial activity against Escherichia coli expressing beta-lactamase VEB-1 by CLSI broth microdilution method; assay type: functional
Escherichia coli [43] = test: microbe, parasite or virus in culture; remark: listed apart in the source
Escherichia coli [44] = test: microbe, parasite or virus in culture; remark: listed apart in the source
Escherichia coli [45] = test: microbe, parasite or virus in culture; remark: listed apart in the source
Escherichia coli [46] = test: microbe, parasite or virus in culture; remark: listed apart in the source
Escherichia coli [47] = test: microbe, parasite or virus in culture; remark: listed apart in the source
Escherichia coli [48] = test: microbe, parasite or virus in culture; remark: listed apart in the source
Escherichia coli [49] = test: Antimicrobial activity against Escherichia coli expressing beta-lactamase NDM-1 by CLSI broth microdilution method; assay type: functional
Escherichia coli [50] = test: microbe, parasite or virus in culture; remark: listed apart in the source
[51] = Chemical stability in pH 7.4 potassium phosphate buffer assessed as half life for compound hydrolysis at 37 degC by UPLC and mass spectrometry; assay type: physicochemical
Escherichia coli [52] = test: microbe, parasite or virus in culture; remark: listed apart in the source

**Q.** What does the source list for `C[C@H]1[C@H](NC(=O)/C(=N\OC(C)(C)C(=O)O)c2csc(N)n2)C(=O)N1S(=O)(=O)O` [AZTREONAM]?
**A.** MIC (Escherichia coli [1]): 1 mg/L (≈ 2.3 µM); MIC (Escherichia coli [2]): > 1020 mg/L; MIC (Escherichia coli [3]): 128 mg/L (≈ 294 µM); dose excreted [4]: 40%; MIC (Escherichia coli [5]): 1 mg/L (≈ 2.3 µM); Stability (Beta-lactamase SHV-12): Unstable; Stability [6]: Unstable; MIC (Escherichia coli [7]): 256 mg/L (≈ 588 µM); Stability [8]: Unstable; AUC [9]: 13 µg·h/mL; MIC (Escherichia coli [10]): 4 mg/L (≈ 9.19 µM); MIC (Escherichia coli [11]): 16 mg/L (≈ 36.7 µM); MIC (Escherichia coli [12]): 16 mg/L (≈ 36.7 µM); MIC (Escherichia coli [13]): 1 mg/L (≈ 2.3 µM); MIC (Escherichia coli [14]): 16 mg/L (≈ 36.7 µM); MIC (Escherichia coli [15]): 1 mg/L (≈ 2.3 µM); MIC (Escherichia coli [16]): 8 mg/L (≈ 18.4 µM); MIC (Escherichia coli [17]): 4 mg/L (≈ 9.19 µM); AUC [18]: 13 µg·h/mL; MIC (Escherichia coli [19]): 8 mg/L (≈ 18.4 µM); dose excreted [20]: 53%; MIC (Escherichia coli [21]): 4 mg/L (≈ 9.19 µM); MIC (Escherichia coli [22]): 8 mg/L (≈ 18.4 µM); Activity (Klebsiella pneumoniae): inactive; AUC [23]: 5 µg·h/mL; MIC (Escherichia coli [24]): 8 mg/L (≈ 18.4 µM); MIC (Escherichia coli [25]): 16 mg/L (≈ 36.7 µM)

**Q.** With `NC(=O)OC[C@@H]1[C@H](NC(=O)/C(=N\OCC(=O)O)c2csc(N)n2)C(=O)N1S(=O)(=O)O` [CARUMONAM] as the molecule, how does the MIC (Escherichia coli [26]) read?
**A.** 0.125 mg/L (≈ 0.268 µM)

**Q.** And the MIC (Escherichia coli [27])?
**A.** 16 mg/L (≈ 34.3 µM)

**Q.** And the MIC (Escherichia coli [1])?
**A.** 0.5 mg/L (≈ 1.07 µM)

**Q.** And the MIC (Escherichia coli [2])?
**A.** > 64 mg/L

**Q.** And the MIC (Escherichia coli [3])?
**A.** 64 mg/L (≈ 137 µM)

**Q.** And the MIC (Escherichia coli [28])?
**A.** 0.125 mg/L (≈ 0.268 µM)

**Q.** And the MIC (Escherichia coli [29])?
**A.** 64 mg/L (≈ 137 µM)

**Q.** And the MIC (Escherichia coli [5])?
**A.** 0.125 mg/L (≈ 0.268 µM)

**Q.** What about the Stability (Beta-lactamase SHV-12) of the same molecule?
**A.** Unstable

**Q.** And the Stability [6]?
**A.** Stable

**Q.** What about the MIC (Escherichia coli [7]) of the same molecule?
**A.** > 64 mg/L

**Q.** And the Stability [8]?
**A.** Stable

**Q.** What about the MIC (Escherichia coli [30]) of the same molecule?
**A.** 0.125 mg/L (≈ 0.268 µM)

**Q.** What about the MIC (Escherichia coli [31]) of the same molecule?
**A.** 1 mg/L (≈ 2.14 µM)

**Q.** What about the MIC (Escherichia coli [32]) of the same molecule?
**A.** 0.125 mg/L (≈ 0.268 µM)

**Q.** And the MIC (Escherichia coli [10])?
**A.** 4 mg/L (≈ 8.58 µM)

**Q.** What about the MIC (Escherichia coli [11]) of the same molecule?
**A.** 0.5 mg/L (≈ 1.07 µM)

**Q.** And the MIC (Escherichia coli [12])?
**A.** 2 mg/L (≈ 4.29 µM)

**Q.** And the MIC (Escherichia coli [33])?
**A.** 0.125 mg/L (≈ 0.268 µM)

**Q.** What about the MIC (Escherichia coli [13]) of the same molecule?
**A.** 1 mg/L (≈ 2.14 µM)

**Q.** What about the MIC (Escherichia coli [34]) of the same molecule?
**A.** 0.125 mg/L (≈ 0.268 µM)

**Q.** What about the MIC (Escherichia coli [14]) of the same molecule?
**A.** 0.5 mg/L (≈ 1.07 µM)

**Q.** What about the MIC (Escherichia coli [15]) of the same molecule?
**A.** 16 mg/L (≈ 34.3 µM)

**Q.** What about the MIC (Escherichia coli [35]) of the same molecule?
**A.** 0.125 mg/L (≈ 0.268 µM)

**Q.** What about the MIC (Escherichia coli [36]) of the same molecule?
**A.** 4 mg/L (≈ 8.58 µM)

**Q.** What about the MIC (Escherichia coli [37]) of the same molecule?
**A.** 0.06 to 0.125 mg/L (≈ 0.129 to 0.268 µM)

**Q.** And the MIC (Escherichia coli [38])?
**A.** 0.125 mg/L (≈ 0.268 µM)

**Q.** And the MIC (Escherichia coli [16])?
**A.** 1 mg/L (≈ 2.14 µM)

**Q.** What about the MIC (Escherichia coli [39]) of the same molecule?
**A.** 0.125 mg/L (≈ 0.268 µM)

**Q.** And the MIC (Escherichia coli [40])?
**A.** > 64 mg/L

**Q.** What about the MIC (Escherichia coli [17]) of the same molecule?
**A.** 4 mg/L (≈ 8.58 µM)

**Q.** And the MIC (Escherichia coli [41])?
**A.** 4 mg/L (≈ 8.58 µM)

**Q.** And the MIC (Escherichia coli [42])?
**A.** > 64 mg/L

**Q.** What about the MIC (Escherichia coli [19]) of the same molecule?
**A.** 0.5 mg/L (≈ 1.07 µM)

**Q.** And the MIC (Escherichia coli [43])?
**A.** 0.125 mg/L (≈ 0.268 µM)

**Q.** And the MIC (Escherichia coli [44])?
**A.** > 64 mg/L

**Q.** What about the MIC (Escherichia coli [45]) of the same molecule?
**A.** 0.125 mg/L (≈ 0.268 µM)

**Q.** And the MIC (Escherichia coli [46])?
**A.** 0.125 mg/L (≈ 0.268 µM)

**Q.** And the MIC (Escherichia coli [47])?
**A.** 0.125 mg/L (≈ 0.268 µM)

**Q.** What about the MIC (Escherichia coli [21]) of the same molecule?
**A.** 4 mg/L (≈ 8.58 µM)

**Q.** What about the MIC (Escherichia coli [48]) of the same molecule?
**A.** 32 mg/L (≈ 68.6 µM)

**Q.** And the MIC (Escherichia coli [49])?
**A.** 0.125 mg/L (≈ 0.268 µM)

**Q.** And the MIC (Escherichia coli [22])?
**A.** 4 mg/L (≈ 8.58 µM)

**Q.** What about the MIC (Escherichia coli [50]) of the same molecule?
**A.** 0.125 mg/L (≈ 0.268 µM)

**Q.** And the half-life [51]?
**A.** > 83.3 days

**Q.** What about the MIC (Escherichia coli [52]) of the same molecule?
**A.** 0.125 mg/L (≈ 0.268 µM)

**Q.** And the MIC (Escherichia coli [24])?
**A.** 8 mg/L (≈ 17.2 µM)

**Q.** And the MIC (Escherichia coli [25])?
**A.** 0.125 mg/L (≈ 0.268 µM)
